According to ChEMBL document CHEMBL1136964, “Nicotinic agonist binding site mapped by methionine- and tyrosine-scanning coupled with azidochloropyridinyl photoaffinity labeling” (J Med Chem, 2009):

Experiments:
Format in all cases: cell-based
[1] = system: HEK293S; assay: Binding affinity to Aplysia californica AchBP Y195F mutant expressed in HEK293S cells assessed as specific photoincorporation at 46 pmol by scintillation counting relative to wild type
[2] = system: HEK293S; assay: Binding affinity to Aplysia californica AchBP V108M mutant expressed in HEK293S cells assessed as specific photoincorporation at 46 pmol by scintillation counting relative to wild type
[3] = system: HEK293S; assay: Binding affinity to Aplysia californica AchBP V108M, M116L mutant expressed in HEK293S cells assessed as specific photoincorporation at 46 pmol by scintillation counting relative to wild type
[4] = system: HEK293S; assay: Binding affinity to Aplysia californica AchBP I118M, M116L, Y195F mutant expressed in HEK293S cells assessed as specific photoincorporation at 46 pmol by scintillation counting relative to wild type
[5] = Binding affinity to Aplysia californica AchBP M116L,Y195F mutant expressed in HEK293S cells by scintillation proximity assay
[6] = Binding affinity to Aplysia californica AchBP A107M, M116L mutant expressed in HEK293S cells by scintillation proximity assay
[7] = Binding affinity to Aplysia californica AchBP V108M, M116L, Y195F mutant expressed in HEK293S cells by scintillation proximity assay
[8] = Binding affinity to Aplysia californica AchBP I118M, M116L, Y195F mutant expressed in HEK293S cells by scintillation proximity assay
[9] = Binding affinity to Aplysia californica AchBP M116Y, Y195F mutant expressed in HEK293S cells by scintillation proximity assay
[10] = system: HEK293S; assay: Binding affinity to Aplysia californica AchBP M116L,Y195F mutant expressed in HEK293S cells assessed as specific photoincorporation at 46 pmol by scintillation counting
[11] = system: HEK293S; assay: Binding affinity to Aplysia californica AchBP A107M mutant expressed in HEK293S cells assessed as specific photoincorporation at 46 pmol by scintillation counting
[12] = system: HEK293S; assay: Binding affinity to Aplysia californica AchBP A107M, M116L mutant expressed in HEK293S cells assessed as specific photoincorporation at 46 pmol by scintillation counting
[13] = system: HEK293S; assay: Binding affinity to Aplysia californica AchBP A107M, M116L, Y195F mutant expressed in HEK293S cells assessed as specific photoincorporation at 46 pmol by scintillation counting
[14] = system: HEK293S; assay: Binding affinity to Aplysia californica AchBP V108M mutant expressed in HEK293S cells assessed as specific photoincorporation at 46 pmol by scintillation counting
[15] = system: HEK293S; assay: Binding affinity to Aplysia californica AchBP V108M, M116L mutant expressed in HEK293S cells assessed as specific photoincorporation at 46 pmol by scintillation counting
[16] = system: HEK293S; assay: Binding affinity to Aplysia californica AchBP S114M, M116L mutant expressed in HEK293S cells assessed as specific photoincorporation at 46 pmol by scintillation counting
[17] = system: HEK293S; assay: Binding affinity to Aplysia californica AchBP A107M, M116L, Y195F mutant expressed in HEK293S cells assessed as specific photoincorporation at 46 pmol by scintillation counting relative to wild type

Clc1ccc(C2CC3CCC2N3)cn1 (racemic) [EPIBATIDINE]
Activity [1]: 3.4% | Activity [2]: 33% | Activity [3]: 28% | Activity [4]: 16% | Kd [5]: 22 nM | Kd [6]: 7.5 nM | Kd [7]: 2.9 nM | Kd [8]: 24 nM | Kd [9]: 115 nM | Activity [10]: 2% | Activity [11]: 27% | Activity [12]: 29% | Activity [13]: 3.7% | Activity [14]: 9.5% | Activity [15]: 8.1% | Activity [16]: 19% | Activity [17]: 13%
